From patent publication US7015250B2, “Methods and pharmaceutical preparations for normalizing blood pressure with (-)-hydroxycitric acid” (Glykon Technologies Group, LLC, priority 2000, dated 2006)
Values joined by “and” are separate entries in the source; they are usually repeats but may differ in a detail not shown here. Equal entries are not always repeated.

Experiments:
[1] = serum NEFA, insulin and corticosterone in rats on a moderate fat diet given potassium hydroxycitrate for 60 days; format: in vivo; settings: student's T test
Description: Therefore, animal tests were scrutinized to determine if variations in serum levels of non-esterified fatty acids (NEFA), insulin and corticosterone could explain the novel findings. Ten-week old male rats were placed on a moderate fat diet (30% of calories, which is a high-fat diet for rats) for 60 days. These rats were fed water or potassium hydroxycitrate (0.33 mmols/kg) twice daily by gastric intubation, but were otherwise provided with food and water ad libitum. Five animals were used as controls and two different formulas of potassium hydroxycitrate were provided to five animals each. The differences between control (5 data points) and active (10 data points) were then analyzed according to the student's T test. […] Both of these factors could play a role in the clinical findings of lowered blood pressure in hypertensive individuals. Elevated insulin levels are known to be associated with hypertension. Glucocorticoids, similarly, are associated with hypertension through a variety of mechanisms, including sodium retention.

[2] = treated rats, diets mostly of glucose (e.g. 70% glucose); Sullivan and Triscari 1976; cited from earlier work
[3] = pilot open clinical weight loss trial with a pouch delivery form of potassium (−)-hydroxycitrate in extremely obese patients (blood pressure, weight, tolerability); format: in vivo, human; design: Starting Blood Pressure: unit not given here
Description: Blood pressure data was acquired from a multi-week pilot open clinical weight loss trial with extremely obese patients which was undertaken to gauge the effects of a pouch delivery form of a potassium salt of (−)-hydroxycitrate under the normal circumstances faced in clinical practice with this patient population. Sixteen patients were enrolled, three of whom were diabetics on medications or insulin. Several others were suspected of suffering from insulin resistance. The patients ingested 3–4 grams of HCA per day in two divided doses. Aside from being informed that they must eat a carbohydrate-containing meal within one hour of taking the HCA and that they should avoid eating late in the day, they were not instructed to follow any special diet or exercise plan outside their normal habits and no caloric restriction was imposed. This particular form of potassium (−)-hydroxycitrate delivery typically was mixed into water or juice and consumed at mid-morning and mid-afternoon. The delivery was a water-soluble immediate release form. […] A number of patients continued on the program for 6 weeks. […] Several other patients experienced good appetite suppression, yet also complained of episodic tiredness at the beginning of the program, a sign of low blood sugar. Two patients subsequently were placed on phentermine. […] The average weight loss over the 3 week period for these 14 patients was approximately 3.1 pounds per person per week. The clinical decision was made that potassium (−)-hydroxycitrate in an immediate release format can exercise a strong hypoglycemic effect in diabetics and that it appears to influence blood sugar levels in protodiabetics, as well. At therapeutically effective dosages, HCA probably should be used with diabetic populations only under a physician's care.
Along with the hypoglycemic effect of the potassium hydroxycitrate, a quite surprising finding was that blood pressure levels in eight patients began to normalize rapidly with this treatment. Elevated blood pressure is common with obese and insulin-resistant patients, and therefore it was unremarkable that in this patient population (ages ranging roughly 30 to 60) that almost one half suffered from hypertension. Following are the readings for the eight hypertensive patients. Many of these patients had been advised to lower salt intake and to increase potassium and magnesium intake. […]

For O=C(O)CC(O)(C(=O)O)C(O)C(=O)O (single isomer, unassigned; (-)) [HCA, (−)-Hydroxycitric acid], the “corticosterone levels, HCA groups versus control” value ([1]; pooled active (10) vs control (5), one-tailed P 0.0013, two-tailed P 0.0026) was “very significantly lower”, the “insulin levels, HCA groups versus control” value ([1]; pooled active (10) vs control (5), one-tailed P 0.0306, two-tailed P 0.0612) was “significantly lower” and the “NEFA, HCA groups versus control” value ([1]; pooled active (10 data points) vs control (5)) was “no significant difference”. The “plasma levels of glucose, insulin, or free fatty acids relative to controls” value [2] was “no significant differences”.
In the case of O=C([O-])CC(O)(C(=O)[O-])C(O)C(=O)[O-].[K+].[K+].[K+] (stereo not drawn) [potassium hydroxycitrate, potassium (−)-hydroxycitrate], the hypotensive effect ([3]; as little as 3 grams of HCA per day in divided doses (5 grams of the salt), manifests over one to several weeks) is reported as “significant hypotensive effect”, the “Starting Blood Pressure” value ([3]; baseline reading of each of the eight hypertensive, extremely obese patients before treatment) is reported as 150/88 and 178/100 and 130/98 and 150/98 and 140/78 and 180/88 and 120/80 and 170/100 and the “weight loss of one patient” value ([3]; one patient who followed the program for 10 weeks, 3–4 grams of HCA per day) is reported as 32 pounds. For the same compound, the average weight loss ([3]; over the 3 week period, 14 patients, 3–4 grams of HCA per day, no caloric restriction) was “approximately 3.1 pounds per person per week”, the tolerability ([3]; pre-commercial pouch preparation, patients complained of inconvenience and poor taste) was “no other issues of tolerability” and the hypoglycemic reactions ([3]; two of the diagnosed diabetics on medications or insulin, 3–4 grams of HCA per day, immediate release) was “severe hypoglycemic reactions”.
